Experimental data published in patent publication US5166205A, “Derivatives of 1-diphenylmethyl piperazine and their use as antihistamines” (Laboratorios Del Dr. Esteve, S. A., priority 1990, dated 1992).

What was measured:
[1] = Sedative action: Irwin Test (passivity, ataxia); details: for Atax. (ataxia, alterations of coordination in locomotion), evaluated between 0 and 3 / Pas. (passivity, sedation, prostation), evaluation between 0 and 3 / Effect: toxic: rat, i.p.; for Atax. (ataxia, alterations of coordination in locomotion), evaluated between 0 and 3 / Pas. (passivity, sedation, prostation), evaluation between 0 and 3: 1, 2 and 3 hours after treatment
Method: Pas.: Passivity, sedation, prostation. Quantitative evaluation between 0 and 3. They were performed 1, 2 and 3 hours after the treatment.
Atax.: Ataxia, the alterations of coordination in locomotion were evaluated. They were evaluated between 0 and 3. They were performed 1, 2 and 3 hours after the treatment.
Sedative action: 1) Irwin Test

death induced by 48/80 = experiment: "In vivo" antihistaminic activity: protection from death induced by compound 48/80 in the rat; details: for ED50: ip, 4 h, i.p., rat, 48/80 0.5 mg/kg i.v. after 60 minutes, survival four hours after injection, read-out: ED-50 (dose capable of protecting 50% of the animals from death induced by 48/80)
Method: The antihistaminic activity was studied by determining the protection in the face of the mortality used by the product 48/80 in the rat. This test was performed in accordance with the technique described by C. J. E. Niemegeers et cols. (Arch. int. Pharmacodyn., 234, 164-176 (1978). The products according to the present invention are administered intra-peritonially to rats. After 60 minutes the compound 48/80 is administered (0.5 mg/kg, i.v.).
The protective activity is defined as the survival of the rats four hours after the i.v. injection of 48/80.
The activity of the products was studied at several doses in order to determine the dose capable of protecting 50% of the animals (ED-50).
"In vivo" antihistaminic activity Protection from death induced by 48/80

[2] = Sedative effect: potentiation of the sleep time induced by pentobarbital; details: for Potentiation sleep time: sodium pentobarbital 35 mg/kg s.c. one hour later; for Potentiation of the sleep time induced by pentobarbital (in words): oral, example 5 up to 160 mg/kg, difenhidramine at 20 mg/kg
Method: The study of the potentiation of the sleep time due to the pentobarbital was performed following the method described by L. E. Allen and cols. […] The products studied were administered orally. […] The sleep time was compared with a group of control animals, treated only with sodium pentobarbital.

SMILES	Atax. (ataxia, alterations of coordination in locomotion), evaluated between 0 and 3 ([1]; 40 mg/kg)	Pas. (passivity, sedation, prostation), evaluation between 0 and 3 ([1]; 40 mg/kg)	Effect: toxic ([1]; 80 mg/kg)	ED50 (death induced by 48/80) [mg/kg]	Atax. (ataxia, alterations of coordination in locomotion), evaluated between 0 and 3 ([1]; 80 mg/kg)	Pas. (passivity, sedation, prostation), evaluation between 0 and 3 ([1]; 80 mg/kg)	other results
Brc1cnn(CCCCN2CCN(C(c3ccccc3)c3ccccc3)CC2)c1 [Example 1, 4-Bromo-1-[4-(4-diphenylmethyl-1-piperazinyl)butyl]pyrazole]	1.4	0.8	Toxic	3.2			Atax. (ataxia, alterations of coordination in locomotion), evaluated between 0 and 3 ([1]; 20 mg/kg): 1.2; Pas. (passivity, sedation, prostation), evaluation between 0 and 3 ([1]; 20 mg/kg): 0.8
Cc1cnn(CCCCN2CCN(C(c3ccccc3)c3ccccc3)CC2)c1 [Example 5, 1-4-[4-(-Diphenylmethyl-1-piperazinyl)butyl]-4-methyl pyrazole]				0.62	0.5	0.7	sedative action / side effects on the central nervous system (in words) ([1]; in words): less sedative action; Potentiation sleep time ([2]; 40 mg/kg p.o., N.S. (not significant)): 15%; Potentiation sleep time ([2]; 80 mg/kg p.o., N.S. (not significant)): 21%; Potentiation sleep time ([2]; 160 mg/kg p.o., * significant vs control (p < 0.05)): 33%; Potentiation of the sleep time induced by pentobarbital (in words) [2]: does not potentiate the sleep time induced by the pentobarbital except at the dose of 160 mg/kg; antihistaminic activity (in words) (death induced by 48/80; compared with difenhidramine): one of the most powerful of the products
c1ccc(C(c2ccccc2)N2CCN(CCCCn3cncn3)CC2)cc1 [Example 7, 1-[4-(4-Diphenylmethyl-1-piperazinyl)butyl]-1,2,4,-triazole]			Toxic	0.6			
Brc1cnn(CCCN2CCN(C(c3ccccc3)c3ccccc3)CC2)c1 [Example 3, 4-Bromo-1-[3-(4-diphenylmethyl-1-piperazinyl)propyl]pyrazole]				10	0.7	0	
O=C(O)c1cnn(CCCCN2CCN(C(c3ccccc3)c3ccccc3)CC2)c1 [Example 4, 1-[4-(4-Diphenylmethyl-1-piperazinyl)butyl]-4-carboxy pyrazole]				0.62	1	0.9	Atax. (ataxia, alterations of coordination in locomotion), evaluated between 0 and 3 ([1]; 160 mg/kg): 1.6; Pas. (passivity, sedation, prostation), evaluation between 0 and 3 ([1]; 160 mg/kg): 1.2
CN(C)CCOC(c1ccccc1)c1ccccc1 [Difenhidramine, reference compound]	0.9	0		5.4			Potentiation of the sleep time induced by pentobarbital (in words) [2]: potentiates significantly the sleep time at the dose of 20 mg/kg
c1ccc(C(c2ccccc2)N2CCN(CCCCn3cccc3)CC2)cc1 [Example 8, 1-[4-(4-Diphenylmethyl-1-piperazinyl)butyl]pyrrole]				6.7			
Clc1cnn(CCCCN2CCN(C(c3ccccc3)c3ccccc3)CC2)c1 [Example 2, 4-Chloro-1-[4-(-4-diphenylmethyl-1-piperazinyl)butyl]pyrazole]	1.5	0.2	Tox.	3	0.4	0	
c1ccc(C(c2ccccc2)N2CCN(CCCCn3ccnc3)CC2)cc1 [Example 6, 1-[4-(4-Diphenylmethyl-1-piperazinyl)butyl]imidazole]				2.5	0.3	1.3	
